Measurements published in ChEMBL document CHEMBL1201862, “PubChem BioAssay data set” (2004).
Activity calls are given as the source filed them.

Tests used:
[1] = target: T1, Leucine aminopeptidase (Plasmodium falciparum 3D7, UniProt Q8IL11); experiment: P. falciparum M17LAP inhibitors, primary screen, biochemical, fluorogenic H-Leu-NHMec substrate, 1536-well (AID 1619); assay type: functional
T1 sequence (Q8IL11 whole entry): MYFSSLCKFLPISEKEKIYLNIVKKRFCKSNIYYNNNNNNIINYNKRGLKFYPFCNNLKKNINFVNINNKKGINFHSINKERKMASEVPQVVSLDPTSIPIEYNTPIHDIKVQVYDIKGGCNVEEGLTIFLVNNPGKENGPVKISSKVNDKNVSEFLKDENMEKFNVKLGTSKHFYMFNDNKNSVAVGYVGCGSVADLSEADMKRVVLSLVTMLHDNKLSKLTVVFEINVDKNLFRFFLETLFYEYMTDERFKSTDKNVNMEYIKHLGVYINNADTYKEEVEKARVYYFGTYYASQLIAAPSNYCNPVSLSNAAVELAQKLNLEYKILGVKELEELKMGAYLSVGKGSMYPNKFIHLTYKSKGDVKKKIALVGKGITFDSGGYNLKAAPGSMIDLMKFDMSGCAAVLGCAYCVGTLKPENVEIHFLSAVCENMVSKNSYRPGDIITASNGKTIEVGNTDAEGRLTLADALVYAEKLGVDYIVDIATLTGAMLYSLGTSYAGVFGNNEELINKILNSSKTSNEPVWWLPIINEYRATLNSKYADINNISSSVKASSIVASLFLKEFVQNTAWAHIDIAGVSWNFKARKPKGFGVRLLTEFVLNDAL

[2] = target: T2, Microphthalmia-associated transcription factor (Homo sapiens, UniProt O75030); experiment: reducers of TRPM1 reporter luminescence, concentration series – cell-based, SK-MEL-5, cherry-picked, set 3, MITF inhibitor project, dose response (AID 493073); assay type: functional;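 also: SK-MEL-5 melanoma cells with luciferase driven by the MITF target TRPM1 promoter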
T2 sequence (O75030 whole entry): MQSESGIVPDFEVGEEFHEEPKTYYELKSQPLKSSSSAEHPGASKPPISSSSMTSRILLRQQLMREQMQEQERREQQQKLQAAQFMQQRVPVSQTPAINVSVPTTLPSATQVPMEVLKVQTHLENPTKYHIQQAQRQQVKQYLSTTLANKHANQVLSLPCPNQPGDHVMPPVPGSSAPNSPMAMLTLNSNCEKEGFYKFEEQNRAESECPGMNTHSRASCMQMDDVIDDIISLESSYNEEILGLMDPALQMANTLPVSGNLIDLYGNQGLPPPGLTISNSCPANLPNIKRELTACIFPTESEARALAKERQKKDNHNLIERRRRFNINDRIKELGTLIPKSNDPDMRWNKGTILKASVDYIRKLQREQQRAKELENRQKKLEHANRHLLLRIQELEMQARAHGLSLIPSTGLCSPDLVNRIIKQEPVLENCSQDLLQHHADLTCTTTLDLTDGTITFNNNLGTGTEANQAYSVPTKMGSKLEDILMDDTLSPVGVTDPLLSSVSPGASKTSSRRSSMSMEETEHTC

[3] = target: T3, Fatty acid synthase (Homo sapiens, UniProt P49327); experiment: inhibition of human FAS-TE enzyme activity – biochemical, endpoint fluorescence intensity, uHTS hits, dose response (AID 624327); assay type: functional;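 also: fluorescence from hydrolysis of an O-methyl fluorescein acyl ester substrate by the enzyme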
[4] = target: T3, Fatty acid synthase; experiment: inhibition of human FAS-TE enzyme activity – biochemical, kinetic fluorescence intensity, dose response (AID 624326); assay type: functional;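 also: rate of fluorescence rise from hydrolysis of a fluorogenic O-methyl fluorescein ester substrate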
[5] = target: T4, COUP transcription factor 2 (Homo sapiens, UniProt P24468); experiment: Luminescence-based cell-based high throughput dose response assay to identify inhibitors of COUP-TFII (NR2F2).; assay type: functional;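 also: HEK293 cells transiently cotransfected with COUP-TFII expression vector and reporter; luciferase reporter luminescence driven by COUP-TFII from the pX2-168 reporter plasmid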
T4 sequence (P24468 whole entry): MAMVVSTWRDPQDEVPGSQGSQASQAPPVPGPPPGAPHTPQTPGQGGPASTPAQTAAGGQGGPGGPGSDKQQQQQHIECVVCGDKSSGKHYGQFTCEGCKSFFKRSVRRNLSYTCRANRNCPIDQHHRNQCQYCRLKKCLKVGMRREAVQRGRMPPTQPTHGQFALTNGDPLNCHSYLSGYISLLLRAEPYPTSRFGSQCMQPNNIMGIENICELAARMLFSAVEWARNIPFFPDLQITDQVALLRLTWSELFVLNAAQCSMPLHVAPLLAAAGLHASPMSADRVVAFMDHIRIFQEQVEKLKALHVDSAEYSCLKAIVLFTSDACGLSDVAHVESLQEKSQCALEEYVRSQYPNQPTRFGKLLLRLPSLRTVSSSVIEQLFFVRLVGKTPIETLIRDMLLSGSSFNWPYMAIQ

[6] = target: T5, Caspase-6 (Homo sapiens, UniProt P55212); experiment: inhibition of CASP6 peptide cleavage – biochemical, VEID-R110 fluorescence, cherry-pick, dose response (AID 720632)
T5 sequence (P55212 whole entry): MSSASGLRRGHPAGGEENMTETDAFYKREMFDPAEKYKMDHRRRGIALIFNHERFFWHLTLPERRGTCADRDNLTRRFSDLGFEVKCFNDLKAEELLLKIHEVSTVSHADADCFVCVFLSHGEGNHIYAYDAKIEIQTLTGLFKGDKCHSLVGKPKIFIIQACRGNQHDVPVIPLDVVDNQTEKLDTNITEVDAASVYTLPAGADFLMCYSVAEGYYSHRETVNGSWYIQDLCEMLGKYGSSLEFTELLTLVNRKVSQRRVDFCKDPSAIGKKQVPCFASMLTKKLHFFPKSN

[7] = OVCAR-3 cell viability loss – plate reader, dry powder samples, PAX8 inhibitor project, dose response (AID 743044); assay type: functional, cell-based
[8] = OVCAR8 cell viability loss – plate reader, dry powder samples, PAX8 project, dose response (AID 743197); assay type: functional, cell-based; conditions: OVCAR-8
[9] = target: Paired box protein Pax-8 (Homo sapiens, UniProt Q06710); experiment: PAX8 transcriptional activity inhibition in RMG-I – RMG-I cells, luciferase, cherry-pick, dose response (AID 687027); assay type: functional, cell-based;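 also: luciferase reporter driven by Pax8 target thyroperoxidase promoter measured by SteadyGlo luminescence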
[10] = viability loss of HPDE-C7K cells – cell-based, fluorescence, HTS, primary screen (AID 431); assay type: functional; conditions: Homo sapiens
[11] = HPDE-C7 pancreatic duct cell viability loss – fluorescence, HTS (AID 430); assay type: functional, cell-based; conditions: Homo sapiens
[12] = target: DNA dC->dU-editing enzyme APOBEC-3A (Homo sapiens, UniProt P31941); experiment: Dose Response confirmation of small molecule APOBEC3A DNA Deaminase Inhibitors via a fluorescence-based single-stranded DNA deaminase assay. [Related pubchem assays (depositor defined):AID493011, AID493024]; assay type: functional
[13] = target: DNA dC->dU-editing enzyme APOBEC-3G (Homo sapiens, UniProt Q9HC16); assay type: functional;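 also: Dose-response counterscreen measuring inhibition of APOBEC3G DNA deaminase activity, run while confirming APOBEC3A inhibitors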
[14] = viability inhibitors of stage V gametocytes – luminescence, dose response (AID 1117278); assay type: functional, cell-based;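 also: gametocytes exposed to compound for 24 hours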
[15] = viability loss in human Jurkat cells – cell-based, luminescence, cytotoxicity control for P. falciparum gametocyte viability project, dose response (AID 1117277); assay type: functional;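 also: potency reflects loss of cellular ATP meaning fewer viable cells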
[16] = target: Prothrombin (Homo sapiens, UniProt P00734); experiment: Thrombin 1536 HTS Dose Response Confirmation. [Related pubchem assays: 1046 (Thrombin 1536 HTS; hits were confirmed in this assay)]; assay type: functional
[17] = growth inhibition of PfATP4-mutant resistant parasites – NITD609-resistant line, SYBR Green, dry powder, dose response (AID 1159571); assay type: functional, cell-based;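 also: parasites synchronized at ring stage by sorbitol before testing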
[18] = growth inhibition of yeast DHODH-expressing 3D7 parasites – SYBR Green, dry powder samples, dose response (AID 1159570); assay type: functional, cell-based;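 also: parasite growth measured after 72 hours of compound exposure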
[19] = P. falciparum Dd2 growth inhibitors, dose response, SYBR Green, cherry-picked samples (AID 1159567); assay type: functional, cell-based
[20] = Dd2 malaria parasite growth inhibition potency – SYBR Green, dry powder samples, dose response (AID 1159566); assay type: functional, cell-based;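 also: potency for growth inhibition with lower SYBR green DNA signal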

DNA dC->dU-editing enzyme APOBEC-3A, sequence (P31941 whole entry): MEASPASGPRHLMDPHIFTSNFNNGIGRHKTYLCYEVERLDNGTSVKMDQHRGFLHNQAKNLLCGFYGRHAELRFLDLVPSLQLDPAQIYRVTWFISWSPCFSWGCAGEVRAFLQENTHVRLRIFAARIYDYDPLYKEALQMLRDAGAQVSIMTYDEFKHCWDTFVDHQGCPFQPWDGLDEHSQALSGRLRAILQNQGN
DNA dC->dU-editing enzyme APOBEC-3G, sequence (Q9HC16 whole entry): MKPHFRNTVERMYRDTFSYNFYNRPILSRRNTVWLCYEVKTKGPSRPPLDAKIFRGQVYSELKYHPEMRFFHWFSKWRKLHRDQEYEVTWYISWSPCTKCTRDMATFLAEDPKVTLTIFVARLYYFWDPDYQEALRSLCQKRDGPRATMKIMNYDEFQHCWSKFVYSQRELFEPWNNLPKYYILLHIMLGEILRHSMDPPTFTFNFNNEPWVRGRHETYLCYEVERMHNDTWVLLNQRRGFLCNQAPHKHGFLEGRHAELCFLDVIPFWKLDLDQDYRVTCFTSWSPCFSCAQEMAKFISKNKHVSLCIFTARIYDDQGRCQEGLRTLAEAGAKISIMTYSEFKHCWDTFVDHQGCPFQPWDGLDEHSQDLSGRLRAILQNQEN
T3 sequence (P49327 whole entry): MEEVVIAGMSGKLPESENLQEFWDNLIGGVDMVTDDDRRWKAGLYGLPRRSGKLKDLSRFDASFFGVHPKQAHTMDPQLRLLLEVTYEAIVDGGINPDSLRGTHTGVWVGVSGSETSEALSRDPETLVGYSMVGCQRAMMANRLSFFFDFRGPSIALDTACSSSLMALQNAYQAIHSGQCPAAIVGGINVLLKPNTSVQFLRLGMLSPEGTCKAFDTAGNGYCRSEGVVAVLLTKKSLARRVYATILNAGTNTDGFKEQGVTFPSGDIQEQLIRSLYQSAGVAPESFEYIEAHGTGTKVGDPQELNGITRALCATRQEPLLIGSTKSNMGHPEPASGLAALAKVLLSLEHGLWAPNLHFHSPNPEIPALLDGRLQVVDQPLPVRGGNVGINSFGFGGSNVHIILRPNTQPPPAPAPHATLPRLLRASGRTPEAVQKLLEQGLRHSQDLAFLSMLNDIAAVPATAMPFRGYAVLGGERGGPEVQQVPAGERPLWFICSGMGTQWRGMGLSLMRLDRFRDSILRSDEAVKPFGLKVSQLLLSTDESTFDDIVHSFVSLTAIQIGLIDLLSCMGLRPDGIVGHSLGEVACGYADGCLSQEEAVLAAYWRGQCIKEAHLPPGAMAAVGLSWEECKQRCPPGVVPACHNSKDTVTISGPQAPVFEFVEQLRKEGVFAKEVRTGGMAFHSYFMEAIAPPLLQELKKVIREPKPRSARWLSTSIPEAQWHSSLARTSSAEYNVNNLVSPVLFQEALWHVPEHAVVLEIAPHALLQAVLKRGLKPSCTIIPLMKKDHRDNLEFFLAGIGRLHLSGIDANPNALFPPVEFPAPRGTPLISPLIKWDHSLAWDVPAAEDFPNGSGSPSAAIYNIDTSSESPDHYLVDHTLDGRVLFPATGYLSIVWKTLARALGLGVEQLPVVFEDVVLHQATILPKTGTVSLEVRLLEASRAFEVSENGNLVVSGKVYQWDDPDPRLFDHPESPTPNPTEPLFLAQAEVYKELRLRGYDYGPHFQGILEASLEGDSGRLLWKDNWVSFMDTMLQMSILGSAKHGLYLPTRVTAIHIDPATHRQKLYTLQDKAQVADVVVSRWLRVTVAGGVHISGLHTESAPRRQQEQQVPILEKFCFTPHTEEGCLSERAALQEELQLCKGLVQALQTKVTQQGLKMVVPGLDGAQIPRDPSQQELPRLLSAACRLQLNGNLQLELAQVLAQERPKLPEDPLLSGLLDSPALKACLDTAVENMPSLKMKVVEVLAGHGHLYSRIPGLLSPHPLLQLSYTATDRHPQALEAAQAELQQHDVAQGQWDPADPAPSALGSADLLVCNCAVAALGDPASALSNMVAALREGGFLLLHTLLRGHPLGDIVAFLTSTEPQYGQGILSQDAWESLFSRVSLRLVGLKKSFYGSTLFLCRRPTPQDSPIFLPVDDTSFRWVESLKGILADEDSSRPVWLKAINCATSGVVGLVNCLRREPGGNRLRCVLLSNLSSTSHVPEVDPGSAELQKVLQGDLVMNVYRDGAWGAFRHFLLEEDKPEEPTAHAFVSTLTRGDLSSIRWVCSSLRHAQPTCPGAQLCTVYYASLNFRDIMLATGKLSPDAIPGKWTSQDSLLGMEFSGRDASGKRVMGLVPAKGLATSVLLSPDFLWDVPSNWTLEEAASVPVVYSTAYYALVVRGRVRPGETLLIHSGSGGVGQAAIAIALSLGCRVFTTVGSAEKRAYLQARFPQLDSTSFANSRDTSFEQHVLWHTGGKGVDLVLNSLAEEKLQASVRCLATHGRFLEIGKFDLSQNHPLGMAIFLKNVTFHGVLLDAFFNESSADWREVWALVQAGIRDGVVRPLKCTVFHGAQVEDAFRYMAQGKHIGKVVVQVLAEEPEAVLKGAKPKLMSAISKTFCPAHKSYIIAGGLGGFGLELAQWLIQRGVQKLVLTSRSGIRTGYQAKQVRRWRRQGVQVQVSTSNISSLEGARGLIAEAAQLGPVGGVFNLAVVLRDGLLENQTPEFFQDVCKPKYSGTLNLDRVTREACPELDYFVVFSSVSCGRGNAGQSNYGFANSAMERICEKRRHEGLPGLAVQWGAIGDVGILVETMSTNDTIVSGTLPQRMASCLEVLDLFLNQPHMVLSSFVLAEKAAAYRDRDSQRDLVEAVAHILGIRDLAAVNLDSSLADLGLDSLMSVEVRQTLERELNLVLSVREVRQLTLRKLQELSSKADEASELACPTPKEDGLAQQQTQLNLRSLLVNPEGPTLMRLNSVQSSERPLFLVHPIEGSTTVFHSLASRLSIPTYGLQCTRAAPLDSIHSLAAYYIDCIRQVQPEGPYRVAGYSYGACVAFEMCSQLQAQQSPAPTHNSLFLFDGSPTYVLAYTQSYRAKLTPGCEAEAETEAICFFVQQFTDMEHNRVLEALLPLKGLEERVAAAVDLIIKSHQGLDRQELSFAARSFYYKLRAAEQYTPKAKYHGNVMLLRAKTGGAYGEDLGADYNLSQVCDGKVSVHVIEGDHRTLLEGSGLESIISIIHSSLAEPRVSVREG
Paired box protein Pax-8, sequence (Q06710 whole entry): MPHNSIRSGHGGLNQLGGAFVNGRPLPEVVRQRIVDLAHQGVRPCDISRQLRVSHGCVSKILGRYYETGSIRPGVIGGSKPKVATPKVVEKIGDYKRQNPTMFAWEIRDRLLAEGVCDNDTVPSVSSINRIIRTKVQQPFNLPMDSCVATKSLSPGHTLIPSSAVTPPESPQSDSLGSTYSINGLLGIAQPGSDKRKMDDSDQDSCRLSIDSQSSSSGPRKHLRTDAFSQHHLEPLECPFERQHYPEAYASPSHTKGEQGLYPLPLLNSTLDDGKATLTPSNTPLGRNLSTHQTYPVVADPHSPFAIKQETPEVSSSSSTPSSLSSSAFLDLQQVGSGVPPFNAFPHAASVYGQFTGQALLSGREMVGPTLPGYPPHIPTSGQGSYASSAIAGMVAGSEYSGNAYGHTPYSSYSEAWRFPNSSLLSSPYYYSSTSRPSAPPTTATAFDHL

For `CC(C)(C)c1ccc(/C=N/Nc2ccc(C(=O)O)cc2)cc1`, the IC50 [1] was 13.3 µM (active), the AC50 [2] was 6.03 µM (active) and the IC50 [3] was 7.49 µM (active). For the same compound, the IC50 [4] was 8.76 µM (active) and the IC50 [5] was > 9.49 µM (active).
For `CCOc1cc(N2CCOCC2)c(OCC)cc1NS(=O)(=O)c1cc(NC(C)=O)ccc1OC`, the AC50 [6] was 34.5 µM (active).
In the case of `Cc1ccc(S(=O)(=O)Nc2ccc3c(c2)C(=O)N([C@H](C)CO)C[C@@H](C)[C@H](CN(C)C(=O)Nc2cccc4ccccc24)OCCCC[C@@H](C)O3)cc1`, the AC50 [7] is reported as 42.1 µM (active), the AC50 [8] is reported as > 70 µM (inactive) and the AC50 [9] is reported as 5.78 µM (active).
With `O=C(CSc1nnc2c3c4c(sc3ncn12)CCCC4)NCc1ccco1` the EC50 [10] was 14.5 µM (active) and the EC50 [11] was > 20 µM (not active).
In the case of `Nn1c(SCC(=O)Nc2ccc3c(c2)OCCO3)nnc(CCC(=O)O)c1=O`, the IC50 [12] is reported as 9.11 µM (active) and the IC50 [13] is reported as 8.47 µM (active).
With `CC(=O)N1CCc2cc(Br)cc(S(=O)(=O)N3CCC(C(=O)O)CC3)c21` the AC50 [6] was 30.4 µM (active).
For `COc1ccc(NC(=O)CS(=O)(=O)c2ccccc2)cc1`, the IC50 [14] was > 109 µM (inactive) and the IC50 [15] was > 83.2 µM (inactive).
With `Cc1c(C(=O)N2CCC(C(N)=O)CC2)sc(N)c1C#N` the IC50 [16] was > 50 µM (not active).
In the case of `O=C(COc1cc(Cl)c(Cl)cc1Cl)N1CCN(c2ccccn2)CC1`, the IC50 [16] is reported as > 50 µM (not active).
With `CCOC(=O)C(CC)(CCC(=O)OC)c1csc(Nc2ccccc2O)n1` (configuration not stated) the IC50 [16] was > 50 µM (not active).
In the case of `CCOC(=O)/C(CCCN(CC)CC)=N\O`, the IC50 [12] is reported as 1.35 µM (active) and the IC50 [13] is reported as 1.26 µM (active).
With `COc1ccc(C#Cc2ccc3c(c2)O[C@@H](CN(C)S(=O)(=O)c2ccccc2F)[C@@H](C)CN([C@@H](C)CO)S3(=O)=O)cc1` the AC50 [17] was 1.93 µM (active), the AC50 [18] was 1.71 µM (active) and the AC50 [19] was 2.65 µM (active). The AC50 [20] was 1.42 µM (active).
With `CN1CCCN(S(=O)(=O)c2ccccc2)CC1` the IC50 [12] was 4.85 µM (active) and the IC50 [13] was 5.93 µM (active).
